{"source": "patent US6489351B1", "about": "“Condensed 4,5,6,7-tetrahydrobenzo[C]thiophenes as enhancer for cell differentation induction factor action” (Takeda Chemical Industries, Ltd., priority 1996, dated 2002)", "key": {"[1]": {"system": "Chondrocytes, prepared from rabbit rib cartilage", "test": "Anti-collagenase action in rabbit chondrocytes (IL-1-induced collagenase production)", "assay_type": "cell-based", "settings": "IL-1 30 ng/ml added, 48 hours, mean±SE, control with IL-1 21.9 ± 1.7, without IL-1 0.1 ± 0.1", "protocol": "Chondrocytes, prepared from rabbit rib cartilage, were suspended in Dulbecco's MEM (DMEM) supplemented with 10% FCS, sown to 12-well plates, and cultured until a confluent state was reached. After the culture broth was removed, the cells were cultured for 48 hours in serum-free DMEM containing IL-1 (30 ng/ml) and the sample compound. The collagenase produced upon induction by IL-1 stimulation and secreted in the culture broth was activated by trypsinization; after a soybean trypsin inhibitor was added to inactivate the trypsin, activity was determined with type I collagen as the substrate. The values obtained are given in mean±SE in Table 3. The data were statistically analyzed by Student's t-test."}, "[2]": {"system": "Mouse-derived osteoblast strain MC3T3-E1", "test": "Alkaline phosphatase production induction capability in mouse osteoblast strain", "assay_type": "cell-based", "settings": "compound 10^−5 M, 72 hours, mean±S.E.; for Alkaline Phosphate Activity (A405 × 1,000), BMP Added (3 ng/ml): 3 ng/ml BMP-4/7 heterodimer, control 397 ± 30 (Experiment 4), 420 ± 1 (Experiment 5); for Alkaline Phosphate Activity (A405 × 1,000), BMP Not Added: no BMP, control 135 ± 2 (Experiment 4), 141 ± 8 (Experiment 5)", "protocol": "Mouse-derived osteoblast strain MC3T3-E1 in α-MEM containing 10% fetal calf serum (FCS) was seeded to 96-well plates (8,000 cells/well); two days later, the sample, previously diluted with a medium containing or not containing 3 ng/ml BMP-4/7 of heterodimer (described in EP-A-0626451) to each concentration shown in Table 2, was added to the cells reaching a confluent state, followed by cultivation for 72 hours. After each plate was once washed with saline, substrate solution was added, followed by incubation at room temperature for 15 minutes. The reaction was stopped by 0.05 N sodium hydroxide, and the absorbance at 405 nm was determined. The values obtained are given in mean±S.E. in Table 2. The data were statistically analyzed by Student's t-test."}}, "data": [{"smiles": "CSc1oc(C(=O)O)c2c1-c1nc(-c3ccccc3)sc1CC2", "note": "[Example 25, 4,5-dihydro-8-methylthio-2-phenylfuro[3,4-e]benzothiazole-6-carboxylic acid]", "values": [{"measurement": "Collagenase Activity (units/ml)", "setting": "[1]; compound 10^−5 M", "result": "1.8 ± 0.6", "unit": "units/ml"}, {"measurement": "Collagenase Activity (units/ml)", "setting": "[1]; compound 10^−6 M", "result": "11.0 ± 0.8", "unit": "units/ml"}, {"measurement": "melting point", "result": "206 to 207 °C (dec.)"}]}, {"smiles": "Cc1nc2c(o1)-c1c(SC(C)C)sc(C(N)=O)c1CC2", "note": "[Example 47, 4,5-dihydro-8-isopropylthio-2-methylthieno[3,4-g]benzoxazole-6-carboxamide]", "values": [{"measurement": "melting point", "result": "230 to 231", "unit": "°C"}, {"measurement": "Alkaline Phosphate Activity (A405 × 1,000), BMP Added (3 ng/ml)", "setting": "[2]", "result": "886 ± 35 A405 × 1,000"}, {"measurement": "Alkaline Phosphate Activity (A405 × 1,000), BMP Not Added", "setting": "[2]", "result": "202 ± 21 A405 × 1,000"}]}, {"smiles": "CSc1sc(C(N)=O)c2c1-c1nc(C)sc1CC2", "note": "[Example 36, 4,5-dihydro-2-methyl-8-methylthiothieno[3,4-e]benzothiazole-6-carboxamide]", "values": [{"measurement": "melting point", "result": "269 to 270", "unit": "°C"}, {"measurement": "Alkaline Phosphate Activity (A405 × 1,000), BMP Added (3 ng/ml)", "setting": "[2]", "result": "618 ± 13 A405 × 1,000"}, {"measurement": "Alkaline Phosphate Activity (A405 × 1,000), BMP Not Added", "setting": "[2]", "result": "181 ± 6 A405 × 1,000"}]}]}
